These results are taken from patent US10722514B2 (FLX Bio, Inc., priority 2017, dated 2020).

As usually defined, the IC50 is the concentration needed to halve the response being measured.

In this assay the target is T1, recombinant full-length USP7 (Homo sapiens, UniProt Q93009).
T1 construct: A 25 μl reaction volume containing recombinant full-length USP7 (62 pM)
Briefly: USP7-mediated ubiquitin-rhodamine cleavage assay. Type of assay: biochemical. To be noted: recombinant full-length USP7 62 pM; ubiquitin-rhodamine 100 nM; 30-minute pre-incubation, 1 hour reaction at room temperature; read-out: Potency (USP7 IC50). An outline of the steps: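 After compound and enzyme (62 pM) sat together 30 min at RT, 100 nM fluorogenic ubiquitin-rhodamine substrate was added for 1 h protected from light. Acetic acid quenched the reaction prior to the fluorescence read.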

T1 sequence (Q93009 whole entry): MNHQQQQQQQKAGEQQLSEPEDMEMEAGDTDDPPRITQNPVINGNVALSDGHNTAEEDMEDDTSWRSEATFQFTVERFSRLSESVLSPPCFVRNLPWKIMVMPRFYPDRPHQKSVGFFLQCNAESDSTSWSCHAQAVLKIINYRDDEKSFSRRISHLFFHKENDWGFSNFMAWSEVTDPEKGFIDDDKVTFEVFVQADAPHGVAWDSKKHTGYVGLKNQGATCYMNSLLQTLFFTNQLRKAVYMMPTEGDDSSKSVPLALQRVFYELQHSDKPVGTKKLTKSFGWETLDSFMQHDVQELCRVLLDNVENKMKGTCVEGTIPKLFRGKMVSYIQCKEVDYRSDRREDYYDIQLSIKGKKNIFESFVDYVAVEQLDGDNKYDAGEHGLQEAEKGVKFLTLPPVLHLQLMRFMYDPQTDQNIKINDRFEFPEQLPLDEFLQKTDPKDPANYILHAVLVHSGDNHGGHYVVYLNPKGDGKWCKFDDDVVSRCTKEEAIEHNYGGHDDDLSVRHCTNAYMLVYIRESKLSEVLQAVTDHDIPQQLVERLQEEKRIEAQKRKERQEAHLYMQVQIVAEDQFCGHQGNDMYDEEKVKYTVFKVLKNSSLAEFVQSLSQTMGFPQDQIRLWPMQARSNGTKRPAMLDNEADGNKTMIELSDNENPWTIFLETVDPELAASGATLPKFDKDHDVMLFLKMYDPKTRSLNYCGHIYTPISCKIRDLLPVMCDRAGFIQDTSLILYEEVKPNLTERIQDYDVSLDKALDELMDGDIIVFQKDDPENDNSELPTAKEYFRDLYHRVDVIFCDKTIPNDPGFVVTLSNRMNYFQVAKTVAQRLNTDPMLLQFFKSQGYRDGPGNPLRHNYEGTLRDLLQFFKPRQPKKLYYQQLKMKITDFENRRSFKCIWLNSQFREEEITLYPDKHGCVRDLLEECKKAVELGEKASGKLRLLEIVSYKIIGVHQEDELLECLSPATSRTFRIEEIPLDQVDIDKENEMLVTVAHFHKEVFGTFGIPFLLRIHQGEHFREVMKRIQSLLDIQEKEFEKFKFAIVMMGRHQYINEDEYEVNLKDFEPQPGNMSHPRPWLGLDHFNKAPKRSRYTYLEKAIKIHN

`Cc1cc(Cl)cc(-c2ccnc3cc(CN4C(=O)CCC4=O)sc23)c1OC1CC[C@H](C)NC1` (stereo partly drawn) [Example 462, 1-[[7-[5-chloro-3-methyl-2-[[(6S)-6-methyl-3-piperidyl]oxy]phenyl]thieno[3,2-b]pyridin-2-yl]methyl]pyrrolidine-2,5-dione; 2,2,2-trifluoroacetic acid]: the IC50 was < 1000 nM.

Turning to `Cc1cc(Cl)cc(-c2ccnc3cc(CN4C(=O)CCC4=O)sc23)c1OC1CC[C@@H](C)NC1` (stereo partly drawn) [Example 463, 1-[[7-[5-chloro-3-methyl-2-[[(6R)-6-methyl-3-piperidyl]oxy]phenyl]thieno[3,2-b]pyridin-2-yl]methyl]pyrrolidine-2,5-dione; 2,2,2-trifluoroacetic acid], the IC50 was < 1000 nM.

In the case of `Cc1cc(Cl)cc(-c2ccnc3cc(CN4C(=O)CCC4=O)sc23)c1OC1CC2(CCN2)C1` (centres unmarked) [Example 464, 1-[[7-[2-(1-azaspiro[3.3]heptan-6-yloxy)-5-chloro-3-methyl-phenyl]thieno[3,2-b]pyridin-2-yl]methyl]pyrrolidine-2,5-dione; 2,2,2-trifluoroacetic acid], the IC50 was < 1000 nM.

Turning to `Cc1cc(Cl)cc(-c2ccnc3cc(Cn4c(=O)ccn(C)c4=O)sc23)c1OC1CC2CC1N(C)C2` (centres unmarked) [Example 465], the IC50 is < 1000 nM.

On to `CCN1CC2CC(Oc3c(C)cc(Cl)cc3-c3ccnc4cc(Cn5c(=O)ccn(C)c5=O)sc34)C1C2` (centres unmarked) [Example 466, 3-[[7-[5-chloro-2-[(3-ethyl-3-azabicyclo[2.2.1]heptan-5-yl)oxy]-3-methyl-phenyl]thieno[3,2-b]pyridin-2-yl]methyl]-1-methyl-pyrimidine-2,4-dione], for which the IC50 is < 1000 nM.

As for `Cc1cc(Cl)cc(-c2ccnc3cc(Cn4c(=O)ccn(C)c4=O)sc23)c1O[C@@H]1CN(CCO)C[C@@H]1F` [Example 467, 3-[[7-[5-chloro-2-[(3R,4S)-4-fluoro-1-(2-hydroxyethyl)pyrrolidin-3-yl]oxy-3-methyl-phenyl]thieno[3,2-b]pyridin-2-yl]methyl]-1-methyl-pyrimidine-2,4-dione; 2,2,2-trifluoroacetic acid], the IC50 is < 1000 nM.

Turning to `Cc1cc(Cl)cc(-c2ccnc3cc(Cn4c(=O)ccn(C)c4=O)sc23)c1O[C@@H]1CCCN[C@@H]1C` [Example 468, 3-[[7-[5-chloro-3-methyl-2-[[(2R,3R)-2-methyl-3-piperidyl]oxy]phenyl]thieno[3,2-b]pyridin-2-yl]methyl]-1-methyl-pyrimidine-2,4-dione; 2,2,2-trifluoroacetic acid], the IC50 is < 1000 nM.

On to `Cc1cc(Cl)cc(-c2ccnc3cc(Cn4c(=O)ccn(C)c4=O)sc23)c1O[C@@H]1CN(C(C)C)C[C@@H]1F` [Example 469, 3-[[7-[5-chloro-2-[(3R,4S)-4-fluoro-1-isopropyl-pyrrolidin-3-yl]oxy-3-methyl-phenyl]thieno[3,2-b]pyridin-2-yl]methyl]-1-methyl-pyrimidine-2,4-dione], for which the IC50 is < 1000 nM.

As for `Cc1cc(Cl)cc(-c2ccnc3cc(Cn4c(=O)c(F)cn(C)c4=O)sc23)c1O[C@@H]1CNC[C@@H]1F` [Example 470, 3-[[7-[5-chloro-2-[(3R,4S)-4-fluoropyrrolidin-3-yl]oxy-3-methyl-phenyl]thieno[3,2-b]pyridin-2-yl]methyl]-5-fluoro-1-methyl-pyrimidine-2,4-dione], the IC50 was < 1000 nM.

With `Cc1cc(Cl)cc(-c2ccnc3cc(Cn4c(=O)ccn(C)c4=O)sc23)c1OC1CCCNCC1F` (centres unmarked) [Example 471, 3-[[7-[5-chloro-2-(3-fluoroazepan-4-yl)oxy-3-methyl-phenyl]thieno[3,2-b]pyridin-2-yl]methyl]-1-methyl-pyrimidine-2,4-dione], the IC50 was < 1000 nM.

For `Cc1cc(Cl)cc(-c2ccnc3cc(Cn4c(=O)ccn(C)c4=O)sc23)c1O[C@H]1CCN(C)C[C@@H]1F` [Example 472, 3-[[7-[5-chloro-2-[[(3S,4S)-3-fluoro-1-methyl-4-piperidyl]oxy]-3-methyl-phenyl]thieno[3,2-b]pyridin-2-yl]methyl]-1-methyl-pyrimidine-2,4-dione; 2,2,2-trifluoroacetic acid], the IC50 is < 1000 nM.

`Cc1cc(Cl)cc(-c2ccnc3cc(Cn4c(=O)ccn(C)c4=O)sc23)c1O[C@H]1CCN(C(C)C)C[C@@H]1F` [Example 473, 3-[[7-[5-chloro-2-[[(3S,4S)-3-fluoro-1-isopropyl-4-piperidyl]oxy]-3-methyl-phenyl]thieno[3,2-b]pyridin-2-yl]methyl]-1-methyl-pyrimidine-2,4-dione; 2,2,2-trifluoroacetic acid]: the IC50 is < 1000 nM.

In the case of `Cc1cc(Cl)cc(-c2ccnc3cc(Cn4c(=O)ccn(C)c4=O)sc23)c1OC1CC2CC1N(C(C)C)C2` (centres unmarked) [Example 474, 3-[[7-[5-chloro-2-[(3-isopropyl-3-azabicyclo[2.2.1]heptan-5-yl)oxy]-3-methyl-phenyl]thieno[3,2-b]pyridin-2-yl]methyl]-1-methyl-pyrimidine-2,4-dione], the IC50 was < 1000 nM.

Regarding `Cc1cc(Cl)cc(-c2ccnc3cc(Cn4c(=O)ccn(C)c4=O)sc23)c1O[C@@H]1CCN(CCO)C[C@@H]1C` [Example 475, 3-[[7-[5-chloro-2-[[(3S,4R)-1-(2-hydroxyethyl)-3-methyl-4-piperidyl]oxy]-3-methyl-phenyl]thieno[3,2-b]pyridin-2-yl]methyl]-1-methyl-pyrimidine-2,4-dione], the IC50 is < 1000 nM.

Turning to `Cc1cc(Cl)cc(-c2ccnc3cc(Cn4c(=O)ccn(C)c4=O)sc23)c1OC1CC2CC1CN2` (centres unmarked) [Example 476, 3-[[7-[2-(2-azabicyclo[2.2.1]heptan-5-yloxy)-5-chloro-3-methyl-phenyl]thieno[3,2-b]pyridin-2-yl]methyl]-1-methyl-pyrimidine-2,4-dione; 2,2,2-trifluoroacetic acid], the IC50 was < 1000 nM.

Regarding `Cc1cc(Cl)cc(-c2ccnc3cc(Cn4c(=O)ccn(C5CCC5)c4=O)sc23)c1O[C@H]1CCCNC1` [Example 477, 3-[[7-[5-chloro-3-methyl-2-[[(3S)-3-piperidyl]oxy]phenyl]thieno[3,2-b]pyridin-2-yl]methyl]-1-cyclobutyl-pyrimidine-2,4-dione], the IC50 was < 1000 nM.

In the case of `Cc1cc(Cl)cc(-c2ccnc3cc(Cn4c(=O)c(C)cn(C)c4=O)sc23)c1O[C@H]1CCCNC1` [Example 478, 3-[[7-[5-chloro-3-methyl-2-[[(3S)-3-piperidyl]oxy]phenyl]thieno[3,2-b]pyridin-2-yl]methyl]-1,5-dimethyl-pyrimidine-2,4-dione; 2,2,2-trifluoroacetic acid], the IC50 is < 1000 nM.

In the case of `Cc1cc(Cl)cc(-c2ccnc3cc(Cn4c(=O)[nH]cc(C)c4=O)sc23)c1O[C@H]1CCCNC1` [Example 479, 3-[[7-[5-chloro-3-methyl-2-[[(3S)-3-piperidyl]oxy]phenyl]thieno[3,2-b]pyridin-2-yl]methyl]-5-methyl-1H-pyrimidine-2,4-dione], the IC50 is < 1000 nM.

Take `Cc1cc(Cl)cc(-c2ccnc3cc(Cn4c(=O)c(C)cn(C)c4=O)sc23)c1O[C@@H]1CNC[C@@H]1F` [Example 480, 3-[[7-[5-chloro-2-[(3R,4S)-4-fluoropyrrolidin-3-yl]oxy-3-methyl-phenyl]thieno[3,2-b]pyridin-2-yl]methyl]-1,5-dimethyl-pyrimidine-2,4-dione]: the IC50 was < 1000 nM.

In the case of `CO[C@@H]1CC(=O)N(Cc2cc3nccc(-c4cc(Cl)cc(C)c4O[C@H]4CCCNC4)c3s2)C1=O` [Example 481, (3R)-1-[[7-[5-chloro-3-methyl-2-[[(3S)-3-piperidyl]oxy]phenyl]thieno[3,2-b]pyridin-2-yl]methyl]-3-methoxy-pyrrolidine-2,5-dione; 2,2,2-trifluoroacetic acid], the IC50 was < 1000 nM.

Turning to `CCN1CC[C@H](Oc2c(C)cc(Cl)cc2-c2ccnc3cc(Cn4c(=O)ccn(C)c4=O)sc23)[C@@H](F)C1` [Example 482, 3-[[7-[5-chloro-2-[[(3S,4S)-1-ethyl-3-fluoro-4-piperidyl]oxy]-3-methyl-phenyl]thieno[3,2-b]pyridin-2-yl]methyl]-1-methyl-pyrimidine-2,4-dione; 2,2,2-trifluoroacetic acid], the IC50 is < 1000 nM.

Take `Cc1cc(Cl)cc(-c2ccnc3cc(Cn4c(=O)ccn(C)c4=O)sc23)c1O[C@H]1CCN(CCO)C[C@@H]1F` [Example 483, 3-[[7-[5-chloro-2-[[(3S,4S)-3-fluoro-1-(2-hydroxyethyl)-4-piperidyl]oxy]-3-methyl-phenyl]thieno[3,2-b]pyridin-2-yl]methyl]-1-methyl-pyrimidine-2,4-dione; 2,2,2-trifluoroacetic acid]: the IC50 is < 1000 nM.

As to `Cc1cc(Cl)cc(-c2ccnc3cc(Cn4c(=O)ccn(CC(F)(F)F)c4=O)sc23)c1O[C@H]1CCCNC1` [Example 484, 3-[[7-[5-chloro-3-methyl-2-[[(3S)-3-piperidyl]oxy]phenyl]thieno[3,2-b]pyridin-2-yl]methyl]-1-(2,2,2-trifluoroethyl)pyrimidine-2,4-dione], the IC50 was < 1000 nM.

As to `Cc1cc(Cl)cc(-c2ccnc3cc(Cn4c(=O)ccn(CC(F)(F)F)c4=O)sc23)c1O[C@@H]1CNC[C@@H]1F` [Example 485, 3-[[7-[5-chloro-2-[(3R,4S)-4-fluoropyrrolidin-3-yl]oxy-3-methyl-phenyl]thieno[3,2-b]pyridin-2-yl]methyl]-1-(2,2,2-trifluoroethyl)pyrimidine-2,4-dione], the IC50 is < 1000 nM.

As for `Cc1cc(Cl)cc(-c2ccnc3cc(Cn4c(=O)ccn(C)c4=O)sc23)c1O[C@@H]1CN[C@H](C(=O)O)C1` [Example 486, (2S,4S)-4-[4-chloro-2-methyl-6-[2-[(3-methyl-2,6-dioxo-pyrimidin-1-yl)methyl]thieno[3,2-b]pyridin-7-yl]phenoxy]pyrrolidine-2-carboxylic acid], the IC50 was < 1000 nM.

For `Cc1cc(Cl)cc(-c2ccnc3cc(Cn4c(=O)ccn(C)c4=O)sc23)c1OCC1CNC1` [Example 487, 3-[[7-[2-(azetidin-3-ylmethoxy)-5-chloro-3-methyl-phenyl]thieno[3,2-b]pyridin-2-yl]methyl]-1-methyl-pyrimidine-2,4-dione], the IC50 was < 1000 nM.
